According to PubChem BioAssay AID248 (DTP/NCI, 2004):
Toxic doses and inconclusive results are not listed. Rule as the data show it: active = T/C of 150% or more; inactive = T/C below 125%.

System: L1210 leukemia ip in BDF1 mice, survival T/C
Experiment: NCI In Vivo Anticancer Drug Screen. Data for tumor model L1210 Leukemia (intraperitoneal) in B6D2F1 (BDF1) mice
Conditions: endpoint: mean survival time, higher = longer survival
Procedure, shortened: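 Survival endpoint. Drug-treated group vs vehicle group, expressed as T divided by C. Tumor passaged by transplantation.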

[1] = dose: 100.0 mg/kg/injection, schedule: Q04DX003 (ip), vehicle: other
[2] = dose: 200.0 mg/kg/injection, schedule: Q04DX003 (ip), vehicle: other
[3] = dose: 400.0 mg/kg/injection, schedule: Q04DX003 (ip), vehicle: other
[4] = dose: 100.0 mg/kg/injection, schedule: Q04DX002 (ip), vehicle: Klucel (hydroxypropylcellulose) (HPC)
[5] = dose: 200.0 mg/kg/injection, schedule: Q04DX002 (ip), vehicle: Klucel (hydroxypropylcellulose) (HPC)
[6] = dose: 400.0 mg/kg/injection, schedule: Q04DX002 (ip), vehicle: Klucel (hydroxypropylcellulose) (HPC)
[7] = dose: 100.0 mg/kg/injection, schedule: Q01DX009 (ip), vehicle: Klucel (hydroxypropylcellulose) (HPC)
[8] = dose: 100.0 mg/kg/injection, schedule: Q04DX003 (ip), vehicle: Klucel (hydroxypropylcellulose) (HPC)
[9] = dose: 200.0 mg/kg/injection, schedule: Q01DX009 (ip), vehicle: Klucel (hydroxypropylcellulose) (HPC)
[10] = dose: 200.0 mg/kg/injection, schedule: Q04DX003 (ip), vehicle: Klucel (hydroxypropylcellulose) (HPC)
[11] = dose: 400.0 mg/kg/injection, schedule: Q01DX009 (ip), vehicle: Klucel (hydroxypropylcellulose) (HPC)
[12] = dose: 400.0 mg/kg/injection, schedule: Q04DX003 (ip), vehicle: Klucel (hydroxypropylcellulose) (HPC)
[13] = dose: 50.0 mg/kg/injection, schedule: Q01DX009 (ip), vehicle: saline with Tween-80
[14] = dose: 100.0 mg/kg/injection, schedule: Q01DX009 (ip), vehicle: saline with Tween-80
[15] = dose: 100.0 mg/kg/injection, schedule: Q01DX009 (ip), vehicle: saline
[16] = dose: 200.0 mg/kg/injection, schedule: Q01DX009 (ip), vehicle: saline
[17] = dose: 400.0 mg/kg/injection, schedule: Q01DX009 (ip), vehicle: saline
[18] = dose: 100.0 mg/kg/injection, schedule: Q01DX001 (ip), vehicle: saline
[19] = dose: 100.0 mg/kg/injection, schedule: Q04DX002 (ip), vehicle: saline with Tween-80
[20] = dose: 200.0 mg/kg/injection, schedule: Q01DX009 (ip), vehicle: saline with Tween-80
[21] = dose: 200.0 mg/kg/injection, schedule: Q04DX002 (ip), vehicle: saline with Tween-80
[22] = dose: 400.0 mg/kg/injection, schedule: Q04DX002 (ip), vehicle: saline with Tween-80
[23] = dose: 100.0 mg/kg/injection, schedule: Q01DX001 (ip), vehicle: carboxymethylcellulose (CMC)
[24] = dose: 200.0 mg/kg/injection, schedule: Q01DX001 (ip), vehicle: carboxymethylcellulose (CMC)
[25] = dose: 400.0 mg/kg/injection, schedule: Q01DX001 (ip), vehicle: carboxymethylcellulose (CMC)

Measured: T/C

CCC[CH2][Sn]([CH2]C)([CH2]C)[CH2]C
inactive: dose: 100.0 mg/kg/injection, schedule: Q04DX002 (ip), vehicle: saline 96 % of control | dose: 200.0 mg/kg/injection, schedule: Q04DX002 (ip), vehicle: saline 101 % of control

CCCCCCCN(CCCCCCC)CC(O)c1cc2ccc(Cl)cc2c2ncccc12 (stereo unspecified)
inactive: dose: 100.0 mg/kg/injection, schedule: Q01DX009 (sc), vehicle: olive oil, sesame oil, peanut oil 109 % of control | dose: 200.0 mg/kg/injection, schedule: Q01DX009 (sc), vehicle: olive oil, sesame oil, peanut oil 108 % of control | dose: 400.0 mg/kg/injection, schedule: Q01DX009 (sc), vehicle: olive oil, sesame oil, peanut oil 95 % of control

CCCCC(C)(C)COC(=O)Nc1ccccc1
inactive: [1] 92 % of control | [2] 104 % of control | [3] 101 % of control

CCOC(=O)/C(O)=C\c1nnccc1Cl
inactive: dose: 56.25 mg/kg/injection, schedule: Q04DX002 (ip), vehicle: saline 96 % of control | dose: 112.5 mg/kg/injection, schedule: Q04DX002 (ip), vehicle: saline 104 % of control | dose: 225.0 mg/kg/injection, schedule: Q04DX002 (ip), vehicle: saline 101 % of control

COc1ccc(/C=C2\N=C(c3cccc([N+](=O)[O-])c3)OC2=O)cc1OC
inactive: [4] 89 % of control | [5] 110 % of control | [6] 100 % of control

CC(C)c1ccccc1SCC1=NCCN1
inactive: dose: 10.0 mg/kg/injection, schedule: Q04DX003 (ip), vehicle: Klucel (hydroxypropylcellulose) (HPC) 103 % of control | dose: 20.0 mg/kg/injection, schedule: Q04DX003 (ip), vehicle: Klucel (hydroxypropylcellulose) (HPC) 115 % of control

CCOC(=O)C(C#N)C(C)CC (stereo unspecified)
inactive: [7] 102 % of control | [8] 98 % of control | [9] 98 % of control | [10] 102 % of control | [11] 94 % of control | [12] 90 % of control

NC(=O)Nc1ccccc1-c1ccccc1
inactive: [4] 103 % of control | [5] 109 % of control | [6] 103 % of control

CC(=O)Nc1ncnc2c1c(C(N)=O)cn2C1OC(COC(C)=O)C(OC(C)=O)C1OC(C)=O (stereo unspecified)
inactive: dose: 100.0 mg/kg/injection, schedule: Q01DX001 (ip), vehicle: water 102 % of control

O=S(=O)(C1CCCCC1)N1N=NC2CCCCC21 (stereo unspecified)
inactive: [13] 93 % of control | [14] 90 % of control

O=C(O)c1ccccc1C(=O)Nc1ccccc1F
inactive: [8] 97 % of control | [9] 86 % of control | [10] 92 % of control | [11] 91 % of control | [12] 91 % of control

CCCNC(=O)Oc1ccc(Nc2ccccc2)cc1
inactive: [4] 118 % of control | [5] 103 % of control | [6] 107 % of control

CCc1ccc(NC(=O)c2cc(OC)c(OC)c(OC)c2)cc1
inactive: [7] 100 % of control | [9] 97 % of control | [11] 101 % of control

CC(OC1OC(C(=O)O)C(O)C(O)C1O)c1ccccc1 (stereo unspecified)
inactive: [15] 98 % of control | [16] 97 % of control | [17] 105 % of control

Cc1cc(C)c(S(=O)(=O)N=[N+]=[N-])c(C)c1
inactive: [18] 101 % of control | dose: 200.0 mg/kg/injection, schedule: Q01DX001 (ip), vehicle: saline 103 % of control | dose: 400.0 mg/kg/injection, schedule: Q01DX001 (ip), vehicle: saline 97 % of control

BrCOCCCCOCBr
inactive: dose: 44.0 mg/kg/injection, schedule: Q01DX009 (ip), vehicle: saline with Tween-80 109 % of control | dose: 50.0 mg/kg/injection, schedule: Q01DX001 (ip), vehicle: saline with Tween-80 102 % of control | [13] 108 % of control | dose: 50.0 mg/kg/injection, schedule: Q04DX002 (ip), vehicle: saline with Tween-80 105 % of control | dose: 50.0 mg/kg/injection, schedule: Q04DX003 (ip), vehicle: saline with Tween-80 110 % of control | dose: 67.0 mg/kg/injection, schedule: Q01DX009 (ip), vehicle: saline with Tween-80 112 % of control | dose: 100.0 mg/kg/injection, schedule: Q01DX001 (ip), vehicle: saline with Tween-80 102 % of control | [14] 109 % of control | [19] 107 % of control | dose: 100.0 mg/kg/injection, schedule: Q04DX003 (ip), vehicle: saline with Tween-80 107 % of control | dose: 150.0 mg/kg/injection, schedule: Q01DX009 (ip), vehicle: saline with Tween-80 107 % of control | dose: 200.0 mg/kg/injection, schedule: Q01DX001 (ip), vehicle: saline with Tween-80 104 % of control | [20] 104 % of control | [21] 105 % of control | dose: 200.0 mg/kg/injection, schedule: Q04DX003 (ip), vehicle: saline with Tween-80 109 % of control | dose: 400.0 mg/kg/injection, schedule: Q01DX001 (ip), vehicle: saline with Tween-80 107 % of control | [22] 91 % of control | dose: 400.0 mg/kg/injection, schedule: Q04DX003 (ip), vehicle: saline with Tween-80 103 % of control

Cc1cccc(CN(CC(=O)O)S(C)(=O)=O)c1
inactive: dose: 100.0 mg/kg/injection, schedule: Q01DX009 (ip), vehicle: other 102 % of control | [1] 100 % of control | dose: 200.0 mg/kg/injection, schedule: Q01DX009 (ip), vehicle: other 100 % of control | [2] 98 % of control | dose: 400.0 mg/kg/injection, schedule: Q01DX009 (ip), vehicle: other 100 % of control | [3] 93 % of control

O=C1c2cccc3c([N+](=O)[O-])ccc(c23)C(=O)N1CCc1ccccn1
inactive: [19] 106 % of control | [21] 95 % of control | [22] 103 % of control

O=C(O)CC(C(=O)O)C1C=CCC1 (stereo unspecified)
inactive: [15] 97 % of control | [16] 115 % of control | [17] 101 % of control

CC(C)(C)c1ccc(OC(=O)Nc2cc(C(F)(F)F)ccc2Cl)c(Br)c1
inactive: [7] 90 % of control | [9] 97 % of control | [11] 97 % of control

Cc1ccc(NC(=O)Nc2c(C)cccc2C)cc1
inactive: [23] 95 % of control | [24] 95 % of control | [25] 103 % of control

CCN(CC)CCSSCCN(CC)CC
inactive: dose: 50.0 mg/kg/injection, schedule: Q01DX001 (ip), vehicle: saline 88 % of control | [18] 96 % of control

CC1=NN(c2ccccc2)C(=O)C1N=Nc1ccc(S(N)(=O)=O)cc1 (stereo unspecified)
inactive: [23] 95 % of control | [24] 93 % of control | [25] 93 % of control

Oc1ccccc1C1SCSCS1
inactive: [8] 97 % of control | [10] 98 % of control | [12] 103 % of control

O=C(O)c1sccc1-c1cccc2ccccc12
inactive: dose: 50.0 mg/kg/injection, schedule: Q01DX001 (ip), vehicle: Klucel (hydroxypropylcellulose) (HPC) 94 % of control | dose: 100.0 mg/kg/injection, schedule: Q01DX001 (ip), vehicle: Klucel (hydroxypropylcellulose) (HPC) 96 % of control | dose: 200.0 mg/kg/injection, schedule: Q01DX001 (ip), vehicle: Klucel (hydroxypropylcellulose) (HPC) 94 % of control

c1ccc([P+](CCN2CCC([P+](c3ccccc3)(c3ccccc3)c3ccccc3)=N2)(c2ccccc2)c2ccccc2)cc1
inactive: dose: 1.56 mg/kg/injection, schedule: Q04DX003 (ip), vehicle: saline 103 % of control | dose: 3.12 mg/kg/injection, schedule: Q04DX003 (ip), vehicle: saline 105 % of control

CCCCCCCCCCCCN1CCC(=O)NC1=O
inactive: [14] 100 % of control | [20] 97 % of control
